In brackets after ≈: the same amount, converted by molar mass.
Assays:
[1] = based on PK/PD modeling; cited from earlier work
[2] = tested on: absolute neutrophil count (ANC); details: cited from earlier work
clinical = details: human, in vivo
Experimental: All included patients were ≥ 18 years old, diagnosed with an advanced stage breast cancer, and provided written informed consent. Blood samples taken at routinely scheduled visits plus extensive collection over a 10-12 h dosing interval were gathered during the study. Collected samples were centrifuged, and plasma was stored at -80 °C allowing its conservation until drug level measurements. […] Moreover, information was reconciled with data collected in the randomized controlled medication adherence study in a subset of patients. […] The chromatographic separation was performed on a column XSelect HSS T3 2.1 × 75 mm, 3.5 μm (Waters®, Milford, MA, USA) using a mobile phase composed of a gradient of ammonium acetate 2 mM (+0.1 formic acid) and acetonitrile (+0.1 formic acid). […] The method was validated over the clinically relevant concentration range, i.e., from 0.5 to 500 ng/mL. […] One- and two-compartment models with first- or zero-order absorption, potentially including an absorption lag time were tested. Inter-individual variability was modeled exponentially and tested sequentially on all parameters. Additive, proportional, and mixed models for residual error were compared. Potential associations between post hoc individual parameter estimates and demographic or clinical characteristics were first visually explored and then tested in the model. […] The characteristics available for testing their effect on PD parameters were as follows: age, body weight, ALK, BILT, gamma-glutamyltransferase (GGT), albumin, AST, ALT, eGFR, association with fulvestrant, chemotherapy in the previous treatment line, and POCT measurement. […] Baseline values of continuous covariates were tested on the base ANC parameter while time-varying values were tested on Emax. Continuous covariates were centered and normalized on their median value and tested by linear or allometric functions as appropriate. Missing data were imputed to the population median value. Categorical covariates were coded as 0 or 1, and missing data were first treated as an additional category and then regrouped according to their parameter estimates. The first-order conditional estimation method with interaction (FOCEI) was used for model fitting with the ADVAN4 TRANS4 subroutine for the PK model and the ADVAN6 subroutine defining a system of ordinary differential equations for the PK/PD model. Models were selected based on the improvement in standard goodness-of-fit plots, precision of parameter estimates and eta shrinkage. […] The covariate analysis was performed by forward inclusion (significant level for ΔOFV ≤ -3.84, p ≤ 0.05) followed by backward deletion (significant level for ΔOFV ≥ 7.88, p ≤ 0.005). The final PK/PD model was evaluated with a non-parametric bootstrap using 502 replicates of the initial dataset. The generated median parameters and their CI95% were compared to the final model estimates. In addition, prediction-corrected visual predictive checks (pc-VPCs) were performed to diagnose potential model misspecification by visually comparing observed concentrations with prediction percentiles.

metastatic breast cancer = assay: Exposure–response relationship: Cox proportional hazards models on progression-free survival; assay type: in vivo, human; details: 29 of 44 patients progressed
Excerpt: (§1) To consider the time lapse between radiologic exams (i.e., every 3 months), mean cumulative AUC0-24 over 90 days (AUCcum90) was then predicted. This variable was selected as the exposure metric to be tested as a time-dependent covariate for its influence on PFS. In consideration of the limited number of patients progressing (n = 29), we only included age at treatment initiation as an additional covariate, with an interaction term between age and exposure. Cox proportional hazards models were estimated in R (2021) to evaluate the effect of these covariates on PFS (significance level: p ≤ 0.05).

[3] = as above; assay type: in vivo, human; details: human, plasma, oral; model-predicted, including OFF-treatment periods; read-out: median AUCcum90 (mean cumulative AUC0-24 over 90 days)
Excerpt: as §1

[4] = tested on: absolute neutrophil count (ANC); details: final PK/PD model, FIX at literature value; cited from earlier work
[5] = tested on: absolute neutrophil count (ANC); assay: Semi-mechanistic PK/PD neutropenia model (exposure–toxicity relationship, ANC time course); assay type: in vivo, human; details: for Emax (maximum estimated drug effect on kprol) / ωEC50 (between-subject variability) / ωEmax (between-subject variability): final PK/PD model
Experimental: ANC was directly retrieved from the patients' medical records up to the date of the last PK observation. The most recent ANC value in the three months before palbociclib initiation was retained as the base value. Blood sampling for ANC measurement was performed either concomitantly or separately from that for palbociclib quantification. The proliferation, maturation, and homeostatic regulation of neutrophils were mimicked by a series of 5 compartments, as described in the model developed by Friberg et al.. This structural model was directly applied to our data. The first compartment represented stem cells and proliferating precursor cells in the bone marrow with the systematic renewal of proliferative cells' production modeled by the rate constant kprol. This compartment was followed by three transit compartments to account for the delay between proliferation and maturation according to the first-order rate constant ktr, defined as n+1/MTT , where MTT is the mean transit time of neutrophils. The last compartment characterized the blood circulation with the neutrophil elimination rate constant kcirc. The rate constants kprol, ktr, and […] assumed to be equal, as in the original model. […] ANCs were log-transformed before the analysis, and an additive error on the log scale was used to describe residual variability. Owing to long computation runtime, neutropenia model development was first performed by fixing the PK parameters that were estimated together with PD parameters in the final model. Potential associations between post hoc individual parameter estimates and demographic or clinical characteristics were first visually explored and then tested in the model. […] The characteristics available for testing their effect on PD parameters were as follows: age, body weight, ALK, BILT, gamma-glutamyltransferase (GGT), albumin, AST, ALT, eGFR, association with fulvestrant, chemotherapy in the previous treatment line, and POCT measurement. […] Despite high inter-individual variability on EC50, covariates were not tested on this parameter and were substituted by covariates on Emax as recommended in good practices for exposure-response analyses. Baseline values of continuous covariates were tested on the base ANC parameter while time-varying values were tested on Emax. Continuous covariates were centered and normalized on their median value and tested by linear or allometric functions as appropriate. Missing data were imputed to the population median value. Categorical covariates were coded as 0 or 1, and missing data were first treated as an additional category and then regrouped according to their parameter estimates. The first-order conditional estimation method with interaction (FOCEI) was used for model fitting with the ADVAN4 TRANS4 subroutine for the PK model and the ADVAN6 subroutine defining a system of ordinary differential equations for the PK/PD model. Models were selected based on the improvement in standard goodness-of-fit plots, precision of parameter estimates and eta shrinkage. […] The covariate analysis was performed by forward inclusion (significant level for ΔOFV ≤ -3.84, p ≤ 0.05) followed by backward deletion (significant level for ΔOFV ≥ 7.88, p ≤ 0.005). The final PK/PD model was evaluated with a non-parametric bootstrap using 502 replicates of the initial dataset. The generated median parameters and their CI95% were compared to the final model estimates. In addition, prediction-corrected visual predictive checks (pc-VPCs) were performed to diagnose potential model misspecification by visually comparing observed concentrations with prediction percentiles.

[6] = co-administration of PPIs in fasting conditions, healthy volunteers; cited from earlier work
[7] = bootstrap median (n = 502 samples)

ALAG (absorption lag time) (clinical): 2.0 h | ALAG (absorption lag-time) (clinical): 1.9 h | CL (clearance) (clinical): 68 L/h | CLIPP,no food (clearance with concomitant coadministration of IPP under fasting conditions) (clinical): 106 L/h | Vc (central volume of distribution) (clinical): 2730 L | Vc/F (apparent central volume of distribution) (clinical): 2778 L | clearance (clinical; CL (clearance)): 1130 mL/min | clearance (clinical; CLIPP,no food (clearance with concomitant coadministration of IPP under fasting conditions)): 1770 mL/min | Vd (clinical; Vc (central volume of distribution)): 2700 L | Vd/F (clinical; Vc/F (apparent central volume of distribution)): 2800 L
SMILES: CC(=O)c1c(C)c2cnc(Nc3ccc(N4CCNCC4)cn3)nc2n(C2CCCC2)c1=O [palbociclib, Palbociclib]
upper limit for trough concentration to avoid severe neutropenia [1]: 100 ng/mL | EC50 literature value [2]: 0.0401 µg/mL (≈ 0.0896 µM) | median PFS (metastatic breast cancer): 17 months | mean cumulative AUC0-24 over 90 days (AUCcum90) [3]: 1140 ng·h/mL | EC50 (palbociclib concentration corresponding to 50% of the maximum effect) [4]: 0.0401 µg/mL | EC50 ([5]; Homo sapiens, Neutrophil, base model, attributed to data sparseness, not retained, read-out: estimated EC50 (Emax model, before fixing)): 0.0088 µg/mL (≈ 0.0197 µM) | Emax (maximum estimated drug effect on kprol) [5, 7]: 0.22 | ωEC50 (between-subject variability) [5, 7]: 91 CV% | ωEmax (between-subject variability) [5, 7]: 16 CV% | Emax (maximum estimated drug effect on kprol) ([5]; estimate): 0.22 | ωEC50 (between-subject variability) ([5]; estimate): 93 CV% | ωEmax (between-subject variability) ([5]; estimate): 15 CV% | decrease in AUC [6]: 62%
